Test results as given in PMC12612973, “Inhibition of Human Amylin Aggregation: In Silico and In Vitro Studies” (ACS Omega, 2025).
Where “and” joins values, the source holds several entries; their conditions need not be identical. Equal entries are not always repeated.

Key:
[1] = molecular target: T1, human amylin (hIAPP) (Homo sapiens, UniProt P10997); assay: Thioflavin T (ThT) fluorescence assay of amylin aggregation; format: biochemical; conditions: for inhibition at 10 µM: read-out: ThT inhibition % (mean ± SEM), compound 10 μM, amylin 15 μM, 36 h incubation, 3 trials; for ThT inhibition % (mean ± SEM): compound 10 μM, amylin 15 μM, 36 h incubation, 3 trials
T1 construct: purchased Bachem USA
T1 sequence (P10997 34-70 limits assumed): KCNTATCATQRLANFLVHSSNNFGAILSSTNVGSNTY
Method: (§1) A stock solution of amylin (1 mM) (purchased from Bachem USA), peptide sequence: […] amide (with disulfide bond between Cys2 and Cys7), was prepared in 100% hexafluoroisopropyl alcohol (HFIP) (purchased from Sigma-Aldrich) and stored at −20 °C. , Aliquots of amylin peptide were filtered through a 0.22 μm filter from the stock solution and freeze-dried. For kinetic experiments, 15 μM of amylin was prepared in 50 mM Tris-HCl buffer (pH 7.4), as investigated in previous studies by Chaari et al., , Samples of amylin were prepared in the presence or absence of inhibitors. Each compound was dissolved in DMSO and further diluted with the buffer used to solubilize the amylin. The final mixture contained 15 μM amylin, 10 μM of the test compound, 2% DMSO or 15 μM amylin, and 2% DMSO without the compound (negative control). Also 15 μM amylin, 10 μM of oleuropein aglycone and 2% DMSO was used as a positive control. The prepared solutions were incubated under physiological conditions (pH 7.4 and 37 °C) for amylin aggregation. Samples were incubated for 36 h to test for amylin aggregation, and measurements were conducted at different time points.
Amylin aggregation was monitored by characteristic changes in Thioflavin T (ThT) fluorescence intensity. A ThT stock solution (15 μM) was prepared in deionized water at pH 7.4. The amylin samples were mixed with the ThT solution and allowed to incubate. ThT fluorescence was measured using the PerkinElmer model LS 55 fluorescence spectrophotometer (PerkinElmer, USA), with an excitation wavelength of 440 nm and an emission wavelength of 480 nm. ,− The emission and excitation slits were set to 5 nm, and a 1 cm cuvette was used for all experiments. Nonspecific background fluorescence was subtracted from the samples using appropriate blanks in the absence of proteins. Each experiment was performed in triplicate.

[2] = molecular target: T1, human amylin (hIAPP); assay: Dynamic light scattering (DLS) assay of amylin aggregation; format: biochemical; conditions: 36 h incubation; for inhibition at 10 µM: compound 10 μM, amylin 15 μM, 3 trials, read-out: DLS inhibition % (mean ± SEM)
Method: as §1
DLS (Zetasizer, Malvern) was used at a wavelength of 633 nm to measure the average diffusion coefficient distribution of amylin particles and the aggregation percentage. Samples were diluted 10-fold, and 50 μL was placed into a 96-well plate. The total light scattering intensity at a 90° angle was collected using a 10 s averaging acquisition time. Particle translational diffusion coefficients were calculated from autocorrelated light intensity data (usually 30–40 points) and converted to the hydrodynamic radius (R h) using the Stokes–Einstein equation. A distribution plot of intensity versus R h was calculated using the Sedfit 9.3 analysis software, and intensity-weighted mean R h values were obtained from each peak.

[3] = molecular target: T1, human amylin (hIAPP); assay: Kinetic analysis of amylin aggregation (ThT, two-step autocatalytic aggregation model); format: biochemical; conditions: mean ± S.D.; for t 0 (time point when the aggregation starts): 10% of highest ThT fluorescence; for t 1/2 (aggregation halftime): 50% of highest ThT fluorescence; for t 1 (aggregation endpoint): 90% of highest ThT fluorescence; for k / k e (elongation constant) / k n (nucleation constant) / ρ (ratio of kn to k): ThT data, autocatalytic aggregation model
Method: Kinetic analysis was performed according to the model of autocatalytic aggregation. According to Sabaté et al., aggregation is a two-step process, comprising nucleation (described by the k n constant) and fibrillation phases (represented by the k e constant). Two constants (k n and k e) are calculated using the eq : 5 f=ρ{e^[(1+ρ)kt]−1}/{1+ρe^[(1+ρ)kt]} where k = k e a (where a represents the initial concentration of the aggregating peptide), f stands for a fraction of the fibrillar form in the system, and ρ denotes the dimensionless ratio of k n to k. The parameters k and ρ were calculated first, then k n and k e.
Data were normalized as a fraction of the highest fluorescence from the three trials and fitted into the model of autocatalytic aggregation. The same procedure was repeated for the remaining trials. The second calculation aimed to find the time parameters of the aggregation process: t 0 (time point when the aggregation starts), t 1/2 (aggregation halftime), and t 1 (aggregation endpoint). t 0, t 1/2, and t 1 were calculated as 10%, 50%, and 90% of the highest fluorescence measurements from the three trials, respectively. All calculations were performed using GraphPad Prism 9.5.1, Statistica 13.3.721.1, and Microsoft Excel 2304.

[4] = molecular target: T1, human amylin (hIAPP); assay: Thioflavin T (ThT) fluorescence assay of amylin aggregation; format: biochemical; conditions: read-out: IC50 of amylin aggregation inhibition
[5] = test system: Aβ; parameters: method as in Panek et al.; conditions: ref Panek et al.; cited from earlier work
[6] = test system: Pancreatic INS-1E cells; assay: MTT cytotoxicity assay of amylin aggregates aged with or without inhibitors; format: cell-based
Method: In this study, we utilized Pancreatic INS-1E cells (Department of Cell Physiology and Metabolism, University Medical Center, Switzerland) due to their close physiological similarity to native β-cells, making them highly relevant to our experimental objectives. Pancreatic INS-1E cells were grown in RPMI 1640 medium, supplemented with 2 mM glutamine, 5% fetal calf serum, 10 mM HEPES (pH 7.4), 1 mM sodium pyruvate, 50 μM 2-mercaptoethanol, 100 units/mL penicillin, and 0.1 mg/mL streptomycin. The culturing environment was maintained at 37 °C, 5% CO2, pH 7.4.
The toxicity of human amylin aggregates in the presence or absence of different compounds in the presence of 2% DMSO was assessed by the 3-(4,5-dimethylthiazol-2-yl)-2,5-diphenyltetrazolium bromide (MTT) reduction assay. The cells were cultured and then seeded into 96-well plates and grown for 24 h prior to exposure to different intermediates of amylin or a mixture of amylin with the MTDLs. The final amylin concentration within the culture medium was 5 μM. Cell viability was expressed as the percentage of MTT reduction, using cells treated with the same buffer volume as a reference (100% MTT reduction). The values (averages ± S.D.) were obtained from three independent experiments.

Work on COc1ccc(CNCC(O)CCN2CCN(Cc3ccccc3)CC2)cc1 (stereo not shown) [Compound 10] yielded an inhibition at 10 µM [1] of 31.1 ± 0.9% and an inhibition at 10 µM [2] of 27.8 ± 3%.
For OC(CCN1CCN(C(c2ccccc2)c2ccccc2)CC1)CNCc1ccccc1 (stereo not shown) [Compound 11], the inhibition at 10 µM [1] was 20.8 ± 0.8% and the inhibition at 10 µM [2] was 19 ± 1.8%.
Compound COc1ccc(CNCC(O)CCN2CCN(C(c3ccccc3)c3ccccc3)CC2)cc1 (stereo not shown) [Compound 12] has an inhibition at 10 µM [1] of 11.9 ± 0.7% and an inhibition at 10 µM [2] of 20.7 ± 2%.
In the case of CC(C)(C)c1cccc(CNCC(O)CCN2CCN(C(c3ccccc3)c3ccccc3)CC2)c1 (stereo not shown) [Compound 13], the “ThT inhibition % (mean ± SEM)” value [1] is reported as 74.7 ± 0.7%, the inhibition at 10 µM [1] is reported as roughly 75% and the inhibition at 10 µM [2] is reported as 86.7 ± 4.5%. For the same compound, the “t 0 (time point when the aggregation starts)” value [3] was 12.49 ± 0.19 h, the “t 1/2 (aggregation halftime)” value [3] was 20.41 ± 0.20 h and the “t 1 (aggregation endpoint)” value [3] was 28.41 ± 0.23 h. For the same compound, the k [3] was 0.2729 ± 0.0025 h^–1, the “k e (elongation constant)” value [3] was 18195 ± 165 M^–1h^–1 and the “k n (nucleation constant)” value [3] was 0.0011 ± 0.0001 h^–1. The “ρ (ratio of kn to k)” value [3] was 0.0038 ± 0.0002, the IC50 [4] was 3.75 µM and the “inhibition of Aβ aggregation in the ThT assay” value [5] was 81.4% and ~82%.
For COc1ccc(CNCC(O)CCN2CCN(C(c3ccc(F)cc3)c3ccc(F)cc3)CC2)cc1 (stereo not shown) [Compound 14], the inhibition at 10 µM [1] was 5 ± 4.4% and the inhibition at 10 µM [2] was 7.8 ± 0.5%.
For OC(CNCc1ccccc1)CNCC(c1ccccc1)c1ccccc1 (stereo not shown) [Compound 15], the inhibition at 10 µM [1] was 37.4 ± 0.4% and the inhibition at 10 µM [2] was 25 ± 2.5%.
With OC(CNCCC(c1ccccc1)c1ccccc1)CNCc1ccccc1 (stereo not shown) [Compound 16] the inhibition at 10 µM [1] was 58.8 ± 0.7%, the “average particle size of amylin by DLS” value ([2]; amylin + compound) was 10 nm and the inhibition at 10 µM [2] was 77.9 ± 6%. For the same compound, the “t 0 (time point when the aggregation starts)” value [3] was 11.03 ± 0.22 h, the “t 1/2 (aggregation halftime)” value [3] was 18.22 ± 0.28 h and the “t 1 (aggregation endpoint)” value [3] was 25.52 ± 0.37 h. The k [3] was 0.2996 ± 0.0048 h^–1, the “k e (elongation constant)” value [3] was 19973 ± 320 M^–1h^–1 and the “k n (nucleation constant)” value [3] was 0.0012 ± 0.0001 h^–1. The “ρ (ratio of kn to k)” value [3] was 0.0042 ± 0.0003 and the IC50 [4] was 3.1 µM.
In the case of CC(C)(C)c1cccc(CNCC(O)CNCC(c2ccccc2)c2ccccc2)c1 (stereo not shown) [Compound 17], the “ThT inhibition % (mean ± SEM)” value [1] is reported as 88.1 ± 0.9%, the inhibition at 10 µM [1] is reported as greater than 88% and the inhibition at 10 µM [2] is reported as 99 ± 6.5%. For the same compound, the “t 0 (time point when the aggregation starts)” value [3] was 13.13 ± 1.09 h, the “t 1/2 (aggregation halftime)” value [3] was 21.25 ± 0.20 h and the “t 1 (aggregation endpoint)” value [3] was 29.48 ± 1.02 h. For the same compound, the k [3] was 0.2687 ± 0.0374 h^–1, the “k e (elongation constant)” value [3] was 17913 ± 2489 M^–1h^–1 and the “k n (nucleation constant)” value [3] was 0.0010 ± 0.0006 h^–1. The “ρ (ratio of kn to k)” value [3] was 0.0040 ± 0.0028 and the IC50 [4] was 3.65 µM.
OC(CCNCC(c1ccccc1)c1ccccc1)CNCc1ccccc1 (stereo not shown) [Compound 19] showed an inhibition at 10 µM [1] of 33.7 ± 1.1% and an inhibition at 10 µM [2] of 27.5 ± 3%.
In the case of OC(CCNCCC(c1ccccc1)c1ccccc1)CNCc1ccccc1 (stereo not shown) [Compound 20], the inhibition at 10 µM [1] is reported as 12.6 ± 0.4% and the inhibition at 10 µM [2] is reported as 20.4 ± 2.5%.
In the case of CC(C)(C)c1cccc(CNCC(O)CCNCC(c2ccccc2)c2ccccc2)c1 (stereo not shown) [Compound 21], the “ThT inhibition % (mean ± SEM)” value [1] is reported as 90.8 ± 1.4%, the inhibition at 10 µM [1] is reported as greater than 88% and the inhibition at 10 µM [2] is reported as 99.2 ± 6%. For the same compound, the “t 0 (time point when the aggregation starts)” value [3] was 9.54 ± 0.29 h, the “t 1/2 (aggregation halftime)” value [3] was 18.66 ± 0.56 h and the “t 1 (aggregation endpoint)” value [3] was 28.19 ± 1.42 h. The k [3] was 0.2273 ± 0.0221 h^–1, the “k e (elongation constant)” value [3] was 15155 M^–1h^–1 and 15155 ± 1477 M^–1h^–1 and the “k n (nucleation constant)” value [3] was 0.003 h^–1 and 0.0032 ± 0.0007 h^–1. The “ρ (ratio of kn to k)” value [3] was 0.0145 ± 0.0044, the “cell viability difference versus the sample with amylin fibrils” value ([6]; INS-1E cells 24 h, amylin aggregates aged 36 h with 2.92 μM compound 18 or 3.31 μM compound 21) was “approximately 30 % points” and the “effect on INS-1E cell viability in presence of amylin” value ([6]; INS-1E cells cultured with the MTDLs) was “retained cell viability”. The IC50 [4] was 3.53 µM.
